Columns and labels:
[1] = system: HCV Replicon 1b; assay: HCV inhibition assay, HCV replicon 1b (Clone A or ET-lunet cells; RT-PCR or luciferase reporter); format: cell-based; conditions: Hepatitis C virus, 96 h, HCV replicon 1b; 4 days incubation; read-out: Replicon 1b potency EC90
Summary of the method: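 Inhibition read either as luciferase signal (ET replicon) or as HCV 5′-NTR RNA by RT-PCR relative to rRNA, % = (1−2^−ΔΔCt)×100, against DMSO controls, giving EC50 and EC90. Cells: Clone A or ET-lunet, seeded 1500 or 3000/well, exposed 4 days at 37 °C, 5% CO2, 0.5% DMSO.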

[2] = system: Huh7, HepG2, BxPC3, or CEM cells; assay: Cell cytotoxicity assay (MTS), CC90 as reported in Table 1, cell line not stated; format: cell-based; conditions: MTS assay; 8 days incubation; cell line not given
Summary of the method: (§1)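 MTS read-out (490 nm, 2 h dye step) after 8-day exposure at 37° C. Huh7, HepG2, BxPC3 were seeded at 2×10^3 and CEM at 5×10^3 cells/well, with compound serially diluted from 100 μM. CC90 comes from comparison with untreated control wells.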

[3] = system: genotype (GT) 1a H77 replicon; assay: Replicon assay, H77 GT 1a replicon in Huh7-Lunet cells (RT-PCR); format: cell-based, HCV; conditions: Hepatitis C virus, GT1A, Huh-7, 96 h, 4 days incubation, read-out: RT-PCR H77 1a Potency EC90
Description: Cell Line and Maintenance: The genotype (GT) 1a H77 replicon (Apath LLC Brooklyn, N.Y.) was stably expressed in Huh7-Lunet cells (kindly provided by R. Bartenschlager University of Heidelberg, Heidelberg, Germany) and maintained in Dulbecco's modified Eagle's medium supplemented with 10% fetal bovine serum, 0.1 mM non essential amino acids (NEAA), 4 mM L-glutamine, 1 mM sodium pyruvate and 0.750 mg/mL G418 (Geneticin) (Invitrogen, Carlsbad, Calif.).
Replicon Assay: Inhibition of HCV in the H77 GT 1a replicon (Apath LLC, Brooklyn, N.Y.) was measured by Real-Time PCR (RT-PCR) Replicon cells were added to the plate at 1500 cells/well in 50 μL of medium and 50 μL of 2× drug dilutions were added (in duplicate) per well in a 96 well plate to total 100 μL per well. The plate was incubated at 37° C. in a humidified 8% CO2 atmosphere for 4 days. After incubation, the supernatant was discarded and total RNA was extracted with RNeasy 96 (Qiagen, Valencia Calif.) per manufacturer's instructions. The extracted RNA was amplified as described by Stuyver et al., J. Virol. (2003) 77: 10689-10694, and the ΔCt values for HCV were determined and the EC90 was calculated using GraphPad Prism software (San Diego, Calif.). A “no drug” (medium only) control was used to determine maximum amount of HCV RNA.

[4] = Cell cytotoxicity assay (MTS), CC90 as reported in Table 1, cell line not stated; format: cell-based; conditions: human; MTS assay; 8 days incubation; cell line not given
Summary of the method: as §1

With `CC(C)C[C@H]1CN(C(=O)c2cc(-c3ccc([N+](=O)[O-])cc3)on2)[C@@H](CC(C)C)C(=O)N1` [Compound 273, (3S,6S)-3,6-diisobutyl-4-(5-(4-nitrophenyl)isoxazole-3-carbonyl)piperazin-2-one] the EC90 [1] was 3760 nM and the CC90 [2] was greater than 10000 nM.

`CC(C)C[C@H]1CN(C(=O)[C@@H]2C[C@H]2c2ccc(F)cc2F)[C@@H](CC(C)C)C(=O)N1` [Compound 298, (3S,6S)-4-[(1R,2R)-2-(2,4-fluoro-phenyl)-cyclopropanecarbonyl]-3,6-diisobutyl-piperazin-2-one] gave an EC90 [1] of 230 nM and a CC90 [2] greater than 10000 nM.

In the case of `CC(C)C[C@H]1C(=O)N[C@@H](c2ccccc2)CN1C(=O)[C@@H]1C[C@H]1c1ccc(Cl)cc1` [Compound 301, (3S,6S)-4-((1R,2R)-2-(4-chlorophenyl)cyclopropanecarbonyl)-3-isobutyl-6-phenyl-piperazin-2-one], the EC90 [1] is reported as 170 nM and the CC90 [2] is reported as greater than 10000 nM.

For `CC(C)C[C@H]1C(=O)N[C@@H](c2ccccc2F)CN1C(=O)c1cc(-c2ccc(F)cc2)on1` [Compound 355, (3S,6S)-6-(2-fluorophenyl)-4-(5-(4-fluorophenyl)isoxazole-3-carbonyl)-3-isobutyl-piperazin-2-one], the EC90 [1] was 93 nM, the EC90 [3] was 160 nM and the CC90 at 8 days [4] was greater than 10000 nM.

For `CC(C)C[C@H]1C(=O)N[C@@H](c2ccccc2F)CN1C(=O)c1noc(-c2ccc(F)cc2)n1` [Compound 370, (3S,6S)-6-(2-fluorophenyl)-4-(5-(4-fluorophenyl)-1,2,4-oxadiazole-3-carbonyl)-3-isobutylpiperazin-2-one], the EC90 [1] was 61 nM, the EC90 [3] was 99 nM and the CC90 at 8 days [4] was greater than 10000 nM.

For `CC(C)C[C@H]1C(=O)N[C@@H](c2ccccc2F)CN1C(=O)[C@@H]1C[C@H]1c1ccc(F)cc1` [Compound 373, (3S,6S)-6-(2-fluorophenyl)-4-((1R,2R)-2-(4-fluorophenyl)cyclopropanecarbonyl)-3-isobutylpiperazin-2-one], the EC90 [1] was 57 nM, the EC90 [3] was 87 nM and the CC90 at 8 days [4] was greater than 10000 nM.

`C/C=C/[C@H]1CN(C(=O)c2cc(-c3ccc(F)cc3)on2)[C@@H](CC(C)C)C(=O)N1` [Compound 424, (3S,6S)-4-(5-(4-fluorophenyl)isoxazole-3-carbonyl)-3-isobutyl-6-((E)-prop-1-en-1-yl)piperazin-2-one] showed an EC90 [1] of 64 nM, an EC90 [3] of 82 nM and a CC90 at 8 days [4] greater than 10000 nM.

Molecule `CC(C)C[C@H]1C(=O)N[C@@H](c2cccs2)CN1C(=O)c1cc(-c2ccc(F)cc2)on1` [Compound 426, (3S,6R)-4-(5-(4-fluorophenyl)isoxazole-3-carbonyl)-3-isobutyl-6-(thiophen-2-yl)piperazin-2-one] has an EC90 [1] of 18 nM, an EC90 [3] of 48 nM and a CC90 at 8 days [4] greater than 10000 nM.

`CC(C)C[C@H]1C(=O)N[C@@H](c2cccs2)CN1C(=O)c1noc(-c2ccc(F)cc2)n1` [Compound 430, (3S,6R)-4-(5-(4-fluorophenyl)-1,2,4-oxadiazole-3-carbonyl)-3-isobutyl-6-(thiophen-2-yl)piperazin-2-one] showed an EC90 [1] of 2.6 nM, an EC90 [3] of 18 nM and a CC90 at 8 days [4] greater than 10000 nM.

For `CC(C)C[C@H]1C(=O)N[C@@H](c2cccs2)CN1C(=O)c1cc(-c2ccc(F)cc2)no1` [Compound 432, (3S,6R)-4-(3-(4-fluorophenyl)isoxazole-5-carbonyl)-3-isobutyl-6-(thiophen-2-yl)piperazin-2-one], the EC90 [1] was 20 nM, the EC90 [3] was 22 nM and the CC90 at 8 days [4] was greater than 10000 nM.

In the case of `CC(C)C[C@H]1C(=O)N[C@@H](c2cccs2)CN1C(=O)[C@@H]1C[C@H]1c1ccc(F)cc1` [Compound 433, (3S,6R)-4-((1R,2R)-2-(4-fluorophenyl)cyclopropanecarbonyl)-3-isobutyl-6-(thiophen-2-yl)piperazin-2-one], the EC90 [1] is reported as 18 nM, the EC90 [3] is reported as 30 nM and the CC90 at 8 days [4] is reported as greater than 10000 nM.

With `CC(C)C[C@H]1C(=O)N[C@@H](c2ccsc2)CN1C(=O)c1cc(-c2ccc(F)cc2)on1` [Compound 436, (3S,6S)-4-(5-(4-fluorophenyl)isoxazole-3-carbonyl)-3-isobutyl-6-(thiophen-3-yl)piperazin-2-one] the EC90 [1] was 18 nM, the EC90 [3] was 38 nM and the CC90 at 8 days [4] was greater than 10000 nM.

`CC(C)C[C@H]1C(=O)N[C@@H](c2ccsc2)CN1C(=O)[C@@H]1C[C@H]1c1ccc(F)cc1` [Compound 445, (3S,6S)-4-((1R,2R)-2-(4-fluorophenyl)cyclopropanecarbonyl)-3-isobutyl-6-(thiophen-3-yl)piperazin-2-one] showed an EC90 [1] of 27 nM, an EC90 [3] of 20 nM and a CC90 at 8 days [4] greater than 10000 nM.

For `CC(C)C[C@H]1C(=O)N[C@@H](c2ccsc2)CN1C(=O)c1noc(-c2ccc(F)cc2)n1` [Compound 446, (3S,6S)-4-(5-(4-fluorophenyl)-1,2,4-oxadiazole-3-carbonyl)-3-isobutyl-6-(thiophen-3-yl)piperazin-2-one], the EC90 [1] was 14 nM, the EC90 [3] was 28 nM and the CC90 at 8 days [4] was greater than 10000 nM.

In the case of `CC(C)C[C@H]1C(=O)N[C@@H](c2ccsc2Cl)CN1C(=O)c1cc(-c2ccc(F)cc2)on1` [Compound 496, (3S,6S)-6-(2-chlorothiophen-3-yl)-4-(5-(4-fluorophenyl)isoxazole-3-carbonyl)-3-isobutylpiperazin-2-one], the EC90 [1] is reported as 11 nM, the EC90 [3] is reported as 65 nM and the CC90 at 8 days [4] is reported as greater than 10000 nM.

With `CC(C)C[C@H]1C(=O)N[C@@H](c2ccsc2Cl)CN1C(=O)c1noc(-c2ccc(F)cc2)n1` [Compound 499, (3S,6S)-6-(2-chlorothiophen-3-yl)-4-(5-(4-fluorophenyl)-1,2,4-oxadiazole-3-carbonyl)-3-isobutylpiperazin-2-one] the EC90 [1] was 23 nM, the EC90 [3] was 83 nM and the CC90 at 8 days [4] was greater than 10000 nM.

For `CC(C)C[C@H]1C(=O)N[C@@H](c2cnco2)CN1C(=O)[C@@H]1C[C@H]1c1ccc(F)cc1` [Compound 521, (3S,6R)-4-((1R,2R)-2-(4-fluorophenyl)cyclopropanecarbonyl)-3-isobutyl-6-(oxazol-5-yl)piperazin-2-one], the EC90 [1] was 22 nM, the EC90 [3] was 4 nM and the CC90 at 8 days [4] was greater than 10000 nM.

From US20120202794A1 (priority 2011, published 2012)
